Data as given in paper PMC3847553, “Kinetic properties of “dual” orexin receptor antagonists at OX1R and OX2R orexin receptors” (Frontiers in Neuroscience, 2013).

How the values were obtained:
[1] = tested on: OX2R; assay: FLIPR calcium assay, OX2R, species not given; assay type: cell-based; details: species not stated
Experimental: (§1) Determination of orexin A-stimulated calcium accumulation was performed over 2 days using FLIPR® (Fluorescent imaging plate reader from Molecular Devices-FLIPR384). Cells expressing either human, rat or mouse OX1R or OX2R were seeded at 8,000 cells/well in black 384 well clear bottom plates and incubated overnight at 37°C. The following day, medium was discarded and cells loaded with 50 μ l of 1 mM Fluo-4 AM (Invitrogen F14202) in dimethyl sulfoxide in working buffer (Hanks' balanced salt solution, 10 mM HEPES) and incubated for 60 min at 37°C. The loading buffer was removed and cells were washed with 100 μ l working buffer containing […], 0.1% BSA, and 2.5 mM Probenecid (pH 7.4) to remove the excess Fluo-4 AM. Working buffer was added and plates were incubated 10–15 min at room temperature. The assay plate was then transferred to the Molecular Devices-FLIPR384. The baseline calcium signal was recorded for 10 s, then the antagonist of interest was injected (10 μl at 3 times the final concentration) and the calcium signal recorded every second for 1 min, then every 2 s 40 times. Plates were then incubated at room temperature for 30 min, 1, 2, or 4 h.

[2] = target: T1, human OX1R (Homo sapiens, UniProt O43613); assay: [3H]-BBAC competition binding over time, CHO-hOX1 membranes
T1 construct: expressed in transfected cells; host or cells: CHO; cells from GNF, San Diego
T1 sequence (O43613 1-425): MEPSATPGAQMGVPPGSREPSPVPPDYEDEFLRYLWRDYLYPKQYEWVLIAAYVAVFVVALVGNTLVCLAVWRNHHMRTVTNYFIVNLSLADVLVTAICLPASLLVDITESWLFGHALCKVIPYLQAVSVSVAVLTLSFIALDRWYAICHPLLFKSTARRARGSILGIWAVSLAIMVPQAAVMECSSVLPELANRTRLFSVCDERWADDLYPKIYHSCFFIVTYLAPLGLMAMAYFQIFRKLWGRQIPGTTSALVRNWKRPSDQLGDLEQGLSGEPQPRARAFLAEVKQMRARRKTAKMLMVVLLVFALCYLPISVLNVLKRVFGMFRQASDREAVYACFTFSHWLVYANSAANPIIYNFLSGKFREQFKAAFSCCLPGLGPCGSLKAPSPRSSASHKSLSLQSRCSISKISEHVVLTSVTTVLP
Description: (§2) Chinese Hamster Ovary (CHO) cells stably transfected with the cDNA encoding the human OX1R (CHO-hOX1) or OX2R (CHO-hOX2) were used (kindly provided by T. Cremer and Dr. S. Geisse, NIBR Basel, Switzerland). For measurements of calcium accumulation using FLIPR® (Fluorescent Imaging Plate Reader) assay, CHO or Human Embryonic Kidney (HEK) cells stably expressing mouse, rat or human OX1R or OX2R (kindly provided by Dr. A. Chen, GNF, San Diego, CA, USA) were used. […] Cells were maintained in a humidified incubator at 37°C in 5% CO2. For crude cell membrane preparations, cells were washed and harvested in 10 mM HEPES (pH 7.5), and centrifuged at 4°C for 5 min at 2500 g. The cell pellet was either stored at −80°C or used directly.
(§3) Cell membranes were resuspended in binding assay buffer at 4°C (10 mM HEPES, pH 7.5, 0.5% (w/v) bovine serum albumin (BSA), 5 mM MgCl2, 1 mM CaCl2, and 0.05% Tween 20) and homogenized with a Polytron homogenizer at 50 Hz for 20 s. […] Radioactivity was quantified using a TopCount™ microplate counter (Perkin Elmer).
(§4) All data was analyzed using GraphPad Prism 4.0 (GraphPad, San Diego, USA). The saturation data was fit to a non-linear regression model for saturation binding with consideration for one site binding. […] Competition binding data was fit to a non-linear regression model for competition binding with consideration for variable one site binding with a non-fixed Hill slope.

[3] = tested on: OX1R; assay: FLIPR calcium assay, OX1R, species not given; assay type: cell-based; details: species not stated
Experimental: as §1

[4] = target: T2, human OX2R (Homo sapiens, UniProt O43614); assay: [3H]-BBAC competition binding over time, CHO-hOX2 membranes
T2 construct: expressed in transfected cells; host or cells: CHO; cells from GNF, San Diego
T2 sequence (O43614 1-444): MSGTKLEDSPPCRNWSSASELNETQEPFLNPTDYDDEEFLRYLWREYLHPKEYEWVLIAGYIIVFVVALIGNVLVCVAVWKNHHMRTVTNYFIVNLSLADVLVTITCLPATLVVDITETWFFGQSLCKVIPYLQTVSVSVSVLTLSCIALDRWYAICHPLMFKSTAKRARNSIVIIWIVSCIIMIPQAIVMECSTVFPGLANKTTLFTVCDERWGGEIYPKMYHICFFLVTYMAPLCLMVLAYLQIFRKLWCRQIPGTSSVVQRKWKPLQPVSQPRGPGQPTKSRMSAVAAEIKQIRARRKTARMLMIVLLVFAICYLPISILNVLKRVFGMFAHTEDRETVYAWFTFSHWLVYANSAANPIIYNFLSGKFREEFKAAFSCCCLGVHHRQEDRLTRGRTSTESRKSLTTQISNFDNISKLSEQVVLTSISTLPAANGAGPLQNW
Description: as §2, §3, §4

[5] = tested on: sleep; set-up: method as in Fox et al., 2013; details: rodent studies; ref Fox et al., 2013; cited from earlier work
[6] = target: T1, human OX1R; assay: [3H]-BBAC saturation binding, CHO-hOX1 membranes
Description: as §2, §3
(§5) Data in the figures is representative of the mean ± s.e.m. of a single experiment.
(§6) All data was analyzed using GraphPad Prism 4.0 (GraphPad, San Diego, USA). The saturation data was fit to a non-linear regression model for saturation binding with consideration for one site binding. […]

[7] = target: T2, human OX2R; assay: [3H]-BBAC saturation binding, CHO-hOX2 membranes
Description: as §2, §3, §5, §6

[8] = tested on: OX1R; set-up: method as in Sakurai et al., 1998; details: competition radioligand binding, ref Sakurai et al., 1998; cited from earlier work

Cn1c(SCC(=O)N2CCC[C@H]2C(=O)Nc2ccccc2-c2ccccc2)nc2ccccc21 [BBAC, (S)-N-([1,1′-biphenyl]-2-yl)-1-(2-((1-methyl-1H-benzo[d]imidazol-2-yl)thio)acetyl)pyrrolidine-2-carboxamide]
effect of incubation time on potency in calcium assay [1]: constant potency values irrespective of the incubation time | effect of incubation time on competition curves ([2]; competition for 4.6 nM [3H]-BBAC, 15 min to 4 h, human OX1R): no significant difference in IC50 values measured between 30 min and 4 h | time to reach equilibrium ([2]; competition for [3H]-BBAC, OX1R): 15 to 30 min | effect of incubation time on potency in calcium assay [3]: constant potency values irrespective of the incubation time | effect of incubation time on competition curves ([4]; competition for 4.6 nM [3H]-BBAC, 15 min to 4 h, human OX2R): no significant difference in IC50 values measured between 30 min and 4 h | time to reach equilibrium ([4]; competition for [3H]-BBAC, OX2R): 15 to 30 min

C[C@@H]1CC[C@@H](COc2ccc(F)cn2)CN1C(=O)c1cc(F)ccc1-c1ncccn1 [DORA-22]
effect on sleep [5]: promotes sleep with dose-dependent increases in REM sleep

Cn1c(SCC(=O)N2CCC[C@H]2C(=O)Nc2ccccc2-c2ccccc2)nc2ccccc21 [[^3H]-BBAC, (S)-N-([1,1′-biphenyl]-2-yl)-1-(2-((1-methyl-1H-benzo[d]imidazol-2-yl)thio)acetyl)pyrrolidine-2-carboxamide]
incubation time sufficient to reach Bmax and KD values comparable to 4 h [6]: 15 to 30 min | Kd ([7]; CHO-hOX2 membranes, room temperature): ~1 nM | incubation time sufficient to reach Bmax and KD values comparable to 4 h ([7]; OX2R): 15 to 30 min

orexin B: endogenous orexin peptide
affinity [8]: 250 nM
